Data set [1] has as its system HeLa. The data set can be described thus: MTT-based proliferation assay, HeLa. It counts as cell-based, human. To be noted: 48 h. The text has this: (§1) 7. Cytotoxicity against Mammalian Cells
(§2) 7.1. Cell viability assays for Moxi, C-Moxi and Ru-s4
(§3) Dulbecco’s Modified Eagle’s Medium (DMEM: [+] 4.5 g/L D-Glucose, L-Glutamine; [-]
(§4) Pyruvate), containing 10% fetal calf serum, 1% penicillin and streptomycin, was used
(§5) as growth medium for HeLa cells. DMEM ([+] 1 g/L D-Glucose; [+] Pyruvate),
(§6) containing 10% fetal calf serum, 1% penicillin and streptomycin, was respectively used
(§7) for GM5657 cells. HeLa and GM5657 cells were detached from the wells with trypsin
(§8) and EDTA, harvested by centrifugation and resuspended in the respective cell culture
(§9) medium. The assays were carried out on 96 well plates with a density of 6000 cells
(§10) per well. After 24 h of incubation at 37°C and 10% CO2, the cells were treated with
(§11) Moxi, C-Moxi and Ru-s4 (constant DMSO concentrations of 0.5%) with a final volume
(§12) of 200 µL per well. For a negative control, one series of cells were only treated with
(§13) 0.5% DMSO, and for a positive control, one series was treated with cisplatin. After 48
(§14) h of incubation, 50 µL PBS containing MTT (2.5 mg/mL) was added. The cells were
(§15) incubated for an additional 2 h. Afterwards, the medium was removed, and 200 µL of
(§16) DMSO were added. The formazan crystal absorption was measured at 550 nm, using
(§17) a reference wavelength of 650 nm. Each assay was carried out in triplicates (three
(§18) independent experiments) for each cell line, Table S3.

Data set [2] has as its system GM5657. The data set can be described thus: MTT-based proliferation assay, GM5657. It is filed as cell-based, human. The settings on record: 48 h.
Description: as §1, §2, §3, §4, §5, §6, §7, §8, §9, §10, §11, §12, §13, §14, §15, §16, §17, §18

Data set [3] in a line: solubility as observed in the assays. It counts as physicochemical.
In data set [4] the test system is E. coli K12 (BW25113). Put plainly: antibacterial activity (dosage-response, 24 h) under iron-limited, micro-aerobic conditions.
Data set [5] relates to E. coli K12 (BW25113). Put plainly: prodrug uptake assay (incubation, HPLC of extracellular and wash samples). It is filed as cell-based, Escherichia coli.
Data set [6] has as its system E. coli K12 (BW25113). Put plainly: catalyst-prodrug co-addition growth assay (24 h) with siderophore controls. The settings on record: without C‐moxi, MHII + 200 μM bpy, 2 % O2, 24 h.
The test system of data set [7] is E. coli K12 (BW25113). Put plainly: effect of catalyst-siderophore conjugates on bacterial growth (dose-response, 24 h). The settings on record: at 10 μM, MHII + 200 μM bpy, 2 % O2, 24 h.
Data set [8] concerns E. coli K12 (BW25113). Put plainly: prodrug incubation experiment: C-moxi preloading, washing, catalyst addition (18 h). To be noted: substrate at upper nontoxic concentration.
Where [9] appears, read: Mean of three runs, tested range 0.05–100 μM.
Setting [10] is: MHII + 200 μM bpy, 2 % O2, 37 °C, 24 h.
Where [11] appears, read: C-moxi 10 µM, relative to 'no cell' controls.

≈ marks a conversion by molar mass, not a printed value. Read-outs that look alike come from different tables or passages of the source.

Take `N.N.[Cl][Pt][Cl]` [Cisplatin, cisplatin]: the IC50 (in general, the point on the concentration scale where inhibition reaches its midpoint) in data set [1] (setting [9]) is 17 µM; in data set [1] (Run 1), 12.6 µM; in data set [1] (Run 2) it was 20.6 µM; in data set [1] (Run 3), 17.8 µM; in data set [2] (setting [9]), 18.8 µM; in data set [2] (Run 1), 19.5 µM. Also, the IC50 in data set [2] (Run 2) is 18 µM; in data set [2] (Run 3), 18.9 µM.

`C=CCOC(=O)c1cn(C2CC2)c2c(OC)c(N3C[C@@H]4CCCN[C@@H]4C3)c(F)cc2c1=O` [C‐moxi]: the IC50 was > 100 µM in data set [1] (setting [9]); > 100 µM in data set [1] (Run 2); > 100 µM in data set [1] (Run 3); > 100 µM in data set [1] (Homo sapiens, Run 1); > 100 µM in data set [2] (setting [9]); > 100 µM in data set [2] (Run 2). The IC50 in data set [2] (Run 3) was > 100 µM; in data set [2] (Homo sapiens, Run 1), > 100 µM. Moreover, in data set [3] (bacterial growth assay medium, read-out: solubility limit), the solubility (commonly how much of the substance goes into solution per volume) worked out at 500 µM (≈ 221 µg/mL). Further, the “concentrations at which no antibacterial activity is seen” value in data set [4] (setting [10]) is < 10 µM. Also, the “times less toxic than the parent antibacterial Moxi” value in data set [4] (bacterial assays, E. coli K12) is recorded as ~300. Also, the Remainder in data set [5] (C-moxi 10 µM, 100 % minus extracellular and wash) turned out to be 16.4%. Also, the Uptake in data set [5] (C-moxi 10 µM, incubation OD600 0.1) was determined as 3.31 nmol OD600-1. In addition, the Extracellular in data set [5] (setting [11]) turned out to be 82.7%. The Wash in data set [5] (setting [11]) amounted to 0.9%. Besides, the “internalisation (bacterial uptake) of prodrug” value in data set [5] (C‐moxi added at 10 μM, 15 min at 37 °C, exponential growth, iron-limited, micro-aerobic) is given as 16%.

Take `CC(=O)N(O)CCCCCNC(=O)CCC(=O)N(O)CCCCCNC(=O)CCC(=O)N(O)CCCCCN` [DFO, desferrioxamine B]: in data set [6], the “effect on growth relative to the no addition control, substance alone” value was “does not improve growth”.

As for `O=C(O)c1cccc(O)c1O` [DHB, 2,3‐dihydroxybenzoic acid], the “effect on growth relative to the no addition control, substance alone” value in data set [6] is listed as “improve growth”.

`[Cl][Fe]([Cl])[Cl]` [FeCl3]: the “change of overall growth compared to no addition” value in data set [7] is on record as “tenfold”.

On to `COc1c(N2C[C@@H]3CCCN[C@@H]3C2)c(F)cc2c(=O)c(C(=O)O)cn(C3CC3)c12` [Moxi, moxifloxacin], for which the IC50 in data set [1] (setting [9]) was > 100 µM; in data set [1] (Run 2) it was > 100 µM; in data set [1] (Run 3) it was > 100 µM; in data set [1] (Homo sapiens, Run 1) it was > 100 µM; in data set [2] (setting [9]) it was > 100 µM; in data set [2] (Run 2), > 100 µM. Also, the IC50 is > 100 µM in data set [2] (Run 3) and > 100 µM in data set [2] (Homo sapiens, Run 1). Besides, in data set [4] (setting [10]), the “concentrations at which no antibacterial activity is observed” value was < 10 nM. Besides, the “difference between C‐moxi and DMSO incubations (in words)” value in data set [8] was “no significant difference between incubations”.

Regarding `C=CCOC(=O)N1CCC[C@H]2CN(c3c(F)cc4c(=O)c(C(=O)O)cn(C5CC5)c4c3OC)C[C@H]21` [N‐moxi], the solubility result in data set [3] (10 % DMSO in aqueous MOPS buffer, HPLC kinetics) is listed as “poor solubility”. The “concentrations at which no antibacterial activity is seen” value in data set [4] (setting [10]) was < 10 µM.

For `O=C(NCCCC[C@H](NC(=O)c1cccc(O)c1O)C(=O)O)c1cccc(O)c1O` [azotochelin], the “effect on growth relative to the no addition control, substance alone” value in data set [6] is reported as “improve growth”.

Turning to `O=C(O)CC(O)(CC(=O)O)C(=O)O` [citrate], in data set [6], the “effect on growth relative to the no addition control, substance alone” value is “improve growth”.

Values taken from paper PMC10108276, “Siderophore‐Linked Ruthenium Catalysts for Targeted Allyl Ester Prodrug Activation within Bacterial Cells” (Chemistry (Weinheim an Der Bergstrasse, Germany), 2022).
